The record followed here is patent publication US20230219911A1, “BENZOTHIAZOLE DERIVATIVES AND USES THEREOF” (SHENYANG PHARMACEUTICAL UNIVERSITY, priority 2020, published 2023).

For the assay, the target named is T1, sEH enzyme (human recombinant) (Homo sapiens, UniProt P34913).
T1 construct: purchased Cayman Chemical
T1 sequence (P34913 1-555): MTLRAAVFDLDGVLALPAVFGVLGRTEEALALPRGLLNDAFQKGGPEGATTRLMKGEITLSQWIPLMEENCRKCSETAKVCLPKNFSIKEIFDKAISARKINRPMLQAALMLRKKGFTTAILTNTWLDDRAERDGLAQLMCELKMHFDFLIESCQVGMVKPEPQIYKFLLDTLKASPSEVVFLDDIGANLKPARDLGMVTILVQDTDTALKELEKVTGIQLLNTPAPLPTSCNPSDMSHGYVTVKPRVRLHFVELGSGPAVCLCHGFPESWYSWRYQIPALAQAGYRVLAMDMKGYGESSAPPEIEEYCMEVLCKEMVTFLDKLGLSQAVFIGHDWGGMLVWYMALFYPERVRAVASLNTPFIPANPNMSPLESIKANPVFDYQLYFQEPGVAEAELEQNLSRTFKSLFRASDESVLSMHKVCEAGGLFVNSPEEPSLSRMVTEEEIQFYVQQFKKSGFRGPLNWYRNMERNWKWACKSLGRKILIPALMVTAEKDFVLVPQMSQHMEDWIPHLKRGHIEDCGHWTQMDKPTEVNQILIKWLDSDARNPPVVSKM
Description: in vitro sEH enzyme activity by fluorescence analysis, single concentration inhibition. Type of assay: biochemical. The following applies: compound 0.1 μM; human recombinant sEH; PHOME substrate; 37° C. 15 min; read-out: sEH % inhibition, @ 0.1 μM. As to the method: The benzothiazole skeleton compounds (concentration: 0.1 μM) according to the above formula I of the present invention were tested for the in vitro sEH enzyme activity by fluorescence analysis.
12 μL of sEH enzyme (human recombinant, 0.5 mg/mL, Cayman Chemical) was diluted with 588 μL of buffer (25 mM bis-Tris, pH 7.0). The fluorescent substrate was PHOME (cyano-(6-methoxy-naphthalen-2-yl)-methyl (3-phenyl-oxiranyl)-acetate) in DMSO (10 μM, Cayman Chemical). The compound to be tested was dissolved in 100% DMSO at a concentration of 4 μM. 185 μL of buffer (25 mM bis-Tris, pH 7.0), 5 μL of compound solution, and 5 μL of diluted sEH enzyme were added to the wells of a 96-well plate, and finally 5 μL of substrate solution was added to initiate the reaction. After incubating at 37° C. for 15 min, the fluorescence signal was measured with a microplate reader (excitation wavelength 330 nm, emission wavelength 465 nm).
Inhibition (%)=(F0−F1)/(F0)×100.
Turning to `NC(=O)Nc1ccc2nc(N)sc2c1` [Example 2, 1-(2-aminobenzo[d]thiazol-6-yl)urea], the inhibition at 0.1 µM came out at 11.7%. For the compound `Nc1nc2ccc(NC(=O)Nc3ccccc3)cc2s1` [Example 3, 1-(2-aminobenzo[d]thiazol-6-yl)-3-phenylurea], the inhibition at 0.1 µM amounted to 32.9%.

Consider `Nc1nc2ccc(NC(=O)NCc3ccc(Cl)cc3)cc2s1` [Example 5, 1-(2-aminobenzo[d]thiazol-6-yl)-3-(4-chlorobenzyl)urea], for which the inhibition at 0.1 µM came out at 47%. For the compound `Nc1nc2ccc(NC(=O)NC3CCCCC3)cc2s1` [Example 6, 1-(2-aminobenzo[d]thiazol-6-yl)-3-cyclohexylurea], the inhibition at 0.1 µM was 2.15%. On to `Nc1nc2ccc(N(CCN3CCOCC3)C(=O)Nc3ccc([N+](=O)[O-])cc3)cc2s1` [Example 8, 1-(2-aminobenzo[d]thiazol-6-yl)-1-[2-(4-morpholinyl)ethyl]-3-(4-nitrophenyl)urea], for which the inhibition at 0.1 µM stood at 19.2%. `CC(=O)c1ccc(NC(=O)N(CCN2CCOCC2)c2ccc3nc(N)sc3c2)cc1` [Example 9, 1-(2-aminobenzo[d]thiazol-6-yl)-1-[2-(4-morpholinyl)ethyl]-3-(4-acetylphenyl)urea]: the inhibition at 0.1 µM amounted to 28.2%.

For the compound `CC(=O)Nc1ccc(NC(=O)N(CCN2CCOCC2)c2ccc3nc(N)sc3c2)cc1` [Example 10, 1-(2-aminobenzo[d]thiazol-6-yl)-1-[2-(4-morpholinyl)ethyl]-3-(4-acetamidophenyl)urea], the inhibition at 0.1 µM was 2.16%. With `Nc1nc2ccc(N(CCN3CCOCC3)C(=O)Nc3ccccn3)cc2s1` [Example 14, 1-(2-aminobenzo[d]thiazol-6-yl)-1-[2-(4-morpholinyl)ethyl]-3-(pyridin-2-yl)urea] the figure was 16.2%. As for `Nc1nc2ccc(N(CCN3CCOCC3)C(=O)Nc3cccc4ccccc34)cc2s1` [Example 15, 1-(2-aminobenzo[d]thiazol-6-yl)-1-[2-(4-morpholinyl)ethyl]-3-(naphthalen-1-yl)urea], the inhibition at 0.1 µM was determined as 39%. `Nc1nc2ccc(N(CCN3CCOCC3)C(=O)Nc3ccc(OC(F)(F)F)cc3)cc2s1` [Example 17, 1-(2-aminobenzo[d]thiazol-6-yl)-1-[2-(4-morpholinyl)ethyl]-3-(4-trifluoromethoxyphenyl)urea]: the inhibition at 0.1 µM was found to be 70.3%. Next, `CC(C)Oc1ccc(NC(=O)N(CCN2CCOCC2)c2ccc3nc(N)sc3c2)cc1` [Example 19, 1-(2-aminobenzo[d]thiazol-6-yl)-1-[2-(4-morpholinyl)ethyl]-3-(4-isopropoxyphenyl)urea]: 76.6%; `CC(C)c1ccc(NC(=O)N(CCN2CCOCC2)c2ccc3nc(N)sc3c2)cc1` [Example 20, 1-(2-aminobenzo[d]thiazol-6-yl)-1-[2-(4-morpholinyl)ethyl]-3-(4-isopropylphenyl)urea]: 75.2%; `CCN(CC)CCN(C(=O)Nc1ccc(Cl)cc1)c1ccc2nc(N)sc2c1` [Example 21, 1-(2-aminobenzo[d]thiazol-6-yl)-1-[2-(N,N-diethylamino)ethyl]-3-(4-chlorophenyl)urea]: 86.2%. For `CC1CCN(CCN(C(=O)Nc2ccc(Cl)cc2)c2ccc3nc(N)sc3c2)CC1` [Example 22, 1-(2-aminobenzo[d]thiazol-6-yl)-1-[2-(4-methylpiperidin-1-yl)ethyl]-3-(4-chlorophenyl)urea], the inhibition at 0.1 µM came to 67.5%. On to `CN1CCN(CCN(C(=O)Nc2ccc(C(F)(F)F)cc2)c2ccc3nc(N)sc3c2)CC1` [Example 23, 1-(2-aminobenzo[d]thiazol-6-yl)-1-[2-(4-methylpiperazin-1-yl)ethyl]-3-(4-trifluoromethylphenyl)urea], for which the inhibition at 0.1 µM worked out at 43.7%.

As to `Nc1nc2ccc(N(CCN3CCCC3)C(=O)Nc3ccc(Cl)cc3)cc2s1` [Example 24, 1-(2-aminobenzo[d]thiazol-6-yl)-1-[2-(pyrrolidin-1-yl)ethyl]-3-(4-chlorophenyl)urea], the inhibition at 0.1 µM was found to be 28.4%. `Nc1nc2ccc(N(CCCN3CCOCC3)C(=O)Nc3ccc(Cl)cc3)cc2s1` [Example 26, 1-(2-aminobenzo[d]thiazol-6-yl)-1-[3-(4-morpholinyl)propyl]-3-(4-chlorophenyl)urea]: the inhibition at 0.1 µM was 36.5%.

Take `CCOC(=O)Nc1nc2ccc(N(CCN3CCOCC3)C(=O)Nc3ccc(Cl)cc3)cc2s1` [Example 28, 1-[2-(2-ethoxyformamido)benzo[d]thiazol-6-yl]-1-[2-(4-morpholinyl)ethyl]-3-(4-chlorophenyl)urea]: the inhibition at 0.1 µM came out at 90.5%.

Consider `CC(C)(C)OC(=O)Nc1nc2ccc(N(CCN3CCOCC3)C(=O)Cc3ccc(Cl)cc3)cc2s1` [Example 31, tert-butyl (6-{2-(4-chlorophenyl)-N-[2-(4-morpholinyl)ethyl]acetamido}benzo[d]thiazol-2-yl)carbamate], for which the inhibition at 0.1 µM came to 70.9%. Regarding `O=C(Nc1nc2ccc(N(CCN3CCOCC3)C(=O)Nc3ccc(Cl)cc3)cc2s1)c1ccccc1` [Example 32, 1-(2-phenylformamidobenzo[d]thiazol-6-yl)-1-[2-(4-morpholinyl)ethyl]-3-(4-chlorophenyl)urea], the inhibition at 0.1 µM was found to be 77.6%. Regarding `O=C(CCc1ccccc1)Nc1nc2ccc(N(CCN3CCOCC3)C(=O)Nc3ccc(Cl)cc3)cc2s1` [Example 33], the inhibition at 0.1 µM is 15.8%. Consider `O=C(Cc1ccccc1)Nc1nc2ccc(N(CCN3CCOCC3)C(=O)Nc3ccc(C(F)(F)F)cc3)cc2s1` [Example 34, 1-(2-phenylacetamidobenzo[d]thiazol-6-yl)-1-[2-(4-morpholinyl)ethyl]-3-(4-trifluoromethylphenyl)urea], for which the inhibition at 0.1 µM is 32.5%. With `Cc1ccc(NC(=O)N(CCN2CCOCC2)c2ccc3nc(N)oc3c2)cc1` [Example 35, 1-(2-aminobenzo[d]oxazol-6-yl)-1-[2-(4-morpholinyl)ethyl]-3-(4-methylphenyl)urea], the inhibition at 0.1 µM stood at 10.3%. For the compound `CC(=O)Nc1nc2ccc(N(CCN3CCOCC3)C(=O)Nc3ccc(C)cc3)cc2o1` [Example 36, 1-(2-acetamidobenzo[d]oxazol-6-yl)-1-[2-(4-morpholinyl)ethyl]-3-(4-methylphenyl)urea], the inhibition at 0.1 µM was found to be 45.6%. In the case of `Cc1ccc(NC(=O)N(CCN2CCOCC2)c2ccc3nc(NC(=O)Cc4ccccc4)oc3c2)cc1` [Example 37, 1-(2-phenylacetamidobenzo[d]oxazol-6-yl)-1-[2-(4-morpholinyl)ethyl]-3-(4-methylphenyl)urea], the inhibition at 0.1 µM amounted to 66.8%.

Consider `Nc1nc2ccc(N(CCN3CCOCC3)C(=O)Nc3ccc(F)cc3)nc2s1` [Example 38, 1-(2-aminothiazo[5,4-b]pyridin-5-yl)-3-(4-fluorophenyl)-1-[2-(4-morpholinyl)ethyl]urea], for which the inhibition at 0.1 µM worked out at 57.2%.

Consider `CCNc1nc2ccc(N(CCN3CCOCC3)C(=O)Nc3ccc(F)cc3)nc2s1` [Example 39, 1-[2-(ethylamino)thiazo[5,4-b]pyridin-5-yl]-1-[2-(4-morpholinyl)ethyl]-3-(4-fluorophenyl)urea], for which the inhibition at 0.1 µM amounted to 41.5%. Turning to `Nc1nc2cnc(N(CCN3CCOCC3)C(=O)Nc3ccc(OC(F)(F)F)cc3)cc2s1` [Example 41, 1-(2-aminothiazo[4,5-c]pyridin-6-yl)-1-[2-(4-morpholinyl)ethyl]-3-(4-trifluoromethoxyphenyl)urea], the inhibition at 0.1 µM was 34.7%.

As for `O=C(Nc1nc2cnc(N(CCN3CCOCC3)C(=O)Nc3ccc(OC(F)(F)F)cc3)cc2s1)C1CC1` [Example 42, 1-(2-cyclopropylformamidothiazo[4,5-c]pyridin-6-yl)-1-[2-(4-morpholinyl)ethyl]-3-(4-trifluoromethoxyphenyl)urea], the inhibition at 0.1 µM is 52.1%. In the case of `CCOC(=O)CNc1nc2cnc(N(CCN3CCOCC3)C(=O)Nc3ccc(OC(F)(F)F)cc3)cc2s1` [Example 43], the inhibition at 0.1 µM was found to be 78.2%.

Turning to `Nc1nc2cnc(N(CCN3CCOCC3)C(=O)Nc3cccnc3)nc2s1` [Example 44, 1-(2-aminothiazo[5,4-d]pyrimidin-5-yl)-1-[2-(4-morpholinyl)ethyl]-3-(pyridin-3-yl)urea], the inhibition at 0.1 µM is 55.9%. With `CC(=O)Nc1nc2cnc(N(CCN3CCOCC3)C(=O)Nc3cccnc3)nc2s1` [Example 45, 1-(2-acetamidothiazo[5,4-d]pyrimidin-5-yl)-1-[2-(4-morpholinyl)ethyl]-3-(pyridin-3-yl)urea], the inhibition at 0.1 µM was 45.2%. `O=C(CCc1ccccc1)Nc1nc2cnc(N(CCN3CCOCC3)C(=O)Nc3cccnc3)nc2s1` [Example 46]: the inhibition at 0.1 µM stood at 67.9%.

Broadly, the inhibition is the relative decrease from the control value, in per cent.
